Reference: the supplement of paper PMC4380931
± gives the standard deviation of the averaged measurements.

Columns and labels:
Experiment in all cases: relative viability (cell count relative to DMSO-treated control) (fraction of DMSO control); higher = more viable cells / less drug effect
WM1552C = tested on: WM1552C
Method: (§1)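 BRAF V600E/D melanoma cell lines were seeded in 96-well plates, treated in 4 replicates with seven doses (3.16 nM to 3.16 uM) of RAF/MEK inhibitors for 24, 48 or 72 h, and stained with Hoechst 33342 (nuclei) and DEVD-NucView488 caspase-3 substrate. Plates were imaged on an Operetta. Relative viability is the cell count normalised to a DMSO-treated control; apoptosis fraction is the fraction of NucView488-positive nuclei.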

LOXIMVI = conditions: 24 h
Method: as §1

MZ7MEL = tested on: MZ7MEL
Method: as §1

RVH421 = tested on: RVH421
Method: as §1

MMACSF = tested on: MMACSF
Method: as §1

Cn1cnc2c(F)c(Nc3ccc(Br)cc3Cl)c(C(=O)NOCCO)cc21 [Selumetinib]
relative viability
Conditions	0.00316 µM	0.01 µM	0.0316 µM	0.1 µM	0.316 µM	1 µM	3.16 µM
MMACSF, 24 h	1.11 ± 0.026	1.02 ± 0.045	1.022 ± 0.0064	1.05 ± 0.027	0.989 ± 0.045	1.04 ± 0.026	1.06 ± 0.017
MMACSF, 48 h	0.907 ± 0.063	1.01 ± 0.048	0.88 ± 0.046	0.743 ± 0.06	0.748 ± 0.043	0.664 ± 0.039	0.533 ± 0.03
MMACSF, 72 h	0.924 ± 0.056	0.759 ± 0.066	0.563 ± 0.054	0.449 ± 0.054	0.344 ± 0.032	0.21 ± 0.017	0.141 ± 0.01
MZ7MEL, 24 h	1.03 ± 0.12	1.13 ± 0.11	1.11 ± 0.15	1.07 ± 0.055	1.07 ± 0.14	0.997 ± 0.17	0.809 ± 0.059
MZ7MEL, 48 h	1.01 ± 0.12	1.01 ± 0.095	1.04 ± 0.084	0.797 ± 0.018	0.508 ± 0.03	0.504 ± 0.043	0.492 ± 0.054
MZ7MEL, 72 h	1.14 ± 0.19	1.06 ± 0.14	0.58 ± 0.066	0.328 ± 0.056	0.349 ± 0.017	0.308 ± 0.052	0.31 ± 0.032
RVH421, 24 h	0.975 ± 0.047	0.995 ± 0.019	1.032 ± 0.0097	1.03 ± 0.022	1.09 ± 0.012	1.02	0.919 ± 0.093
RVH421, 48 h	1.04 ± 0.058	0.884 ± 0.11	0.795 ± 0.06	0.721 ± 0.05	0.659 ± 0.049	0.658 ± 0.025	0.593 ± 0.008
RVH421, 72 h	1.01 ± 0.058	0.988 ± 0.08	0.849 ± 0.11	0.657 ± 0.071	0.566 ± 0.067	0.511 ± 0.062	0.488 ± 0.041
WM1552C, 24 h	0.97 ± 0.012	0.993 ± 0.024	1.0822 ± 0.00085	1.07 ± 0.0091	1.03 ± 0.016	1.06 ± 0.022	0.947 ± 0.033
WM1552C, 48 h	0.947 ± 0.041	0.992 ± 0.035	0.956 ± 0.025	0.867 ± 0.032	0.761 ± 0.04	0.676 ± 0.024	0.677 ± 0.034
WM1552C, 72 h	0.862 ± 0.19	0.918 ± 0.12	0.806 ± 0.092	0.635 ± 0.084	0.526 ± 0.023	0.44 ± 0.038	0.411 ± 0.057

LOXIMVI
Conditions	relative viability
0.00316 µM	0.937 ± 0.096
0.01 µM	0.976 ± 0.2
0.0316 µM	1.02 ± 0.11
0.1 µM	1.07 ± 0.12
0.316 µM	0.98 ± 0.16
1 µM	1 ± 0.14
3.16 µM	0.913 ± 0.095

CN(C)CCOc1ccc(-c2nc(-c3ccncc3)c(-c3ccc4c(c3)CC/C4=N\O)[nH]2)cc1
relative viability
Conditions	0.00316 µM	0.01 µM	0.0316 µM	0.1 µM	0.316 µM	1 µM	3.16 µM
MMACSF, 24 h	1.03 ± 0.019	0.999 ± 0.049	0.9993 ± 0.0019	1.03 ± 0.036	0.964 ± 0.029	0.977 ± 0.028	1.02 ± 0.012
MMACSF, 48 h	0.955 ± 0.067	1.01 ± 0.044	0.925 ± 0.047	0.787 ± 0.039	0.791 ± 0.05	0.727 ± 0.053	0.684 ± 0.028
MMACSF, 72 h	0.953 ± 0.041	0.952 ± 0.042	0.779 ± 0.049	0.6 ± 0.024	0.529 ± 0.016	0.423 ± 0.0077	0.341 ± 0.013
MZ7MEL, 24 h	1.1 ± 0.081	1.18 ± 0.13	1.1 ± 0.15	1.09 ± 0.14	1.18 ± 0.14	1.13 ± 0.17	0.887 ± 0.089
MZ7MEL, 48 h	1.07 ± 0.14	0.968 ± 0.081	0.991 ± 0.049	0.874 ± 0.041	0.67 ± 0.045	0.608 ± 0.034	0.545 ± 0.025
MZ7MEL, 72 h	1.23 ± 0.15	1.14 ± 0.17	0.834 ± 0.19	0.614 ± 0.083	0.537 ± 0.08	0.414 ± 0.015	0.387 ± 0.048
RVH421, 24 h	0.994 ± 0.001	0.9379 ± 0.0087	1.04 ± 0.056	1.034 ± 0.0072	1.01 ± 0.043	1.02 ± 0.039	0.929 ± 0.019
RVH421, 48 h	1.07 ± 0.079	0.849 ± 0.052	0.803 ± 0.077	0.689 ± 0.098	0.672 ± 0.043	0.638 ± 0.029	0.513 ± 0.032
RVH421, 72 h	0.983 ± 0.038	0.995 ± 0.021	0.872 ± 0.06	0.702 ± 0.023	0.641 ± 0.039	0.575 ± 0.039	0.542 ± 0.0094
WM1552C, 24 h	0.999 ± 0.03	1.036 ± 0.0045	0.986 ± 0.066	1.08 ± 0.016	1.03 ± 0.028	1.088 ± 0.0011	1.05 ± 0.046
WM1552C, 48 h	1.01 ± 0.04	1.01 ± 0.017	0.994 ± 0.031	0.994 ± 0.036	0.954 ± 0.068	0.87 ± 0.038	0.82 ± 0.046
WM1552C, 72 h	1.03 ± 0.083	1.16 ± 0.059	1.15 ± 0.14	1.03 ± 0.09	0.899 ± 0.056	0.699 ± 0.072	0.616 ± 0.058

LOXIMVI
Conditions	relative viability
0.00316 µM	0.935 ± 0.1
0.01 µM	1.01 ± 0.14
0.0316 µM	1.02 ± 0.19
0.1 µM	0.997 ± 0.14
0.316 µM	1.02 ± 0.15
1 µM	0.987 ± 0.14
3.16 µM	0.903 ± 0.11

CCCS(=O)(=O)Nc1ccc(F)c(C(=O)c2c[nH]c3ncc(-c4ccc(Cl)cc4)cc23)c1F [Vemurafenib]
relative viability
Conditions	0.00316 µM	0.01 µM	0.0316 µM	0.1 µM	0.316 µM	1 µM	3.16 µM
MMACSF, 24 h	0.923 ± 0.051	0.887 ± 0.072	0.976 ± 0.022	1 ± 0.028	0.89 ± 0.14	0.9218 ± 0.00054	0.905 ± 0.16
MMACSF, 48 h	0.908 ± 0.064	0.923 ± 0.11	0.962 ± 0.087	1 ± 0.071	0.85 ± 0.05	0.713 ± 0.06	0.604 ± 0.07
MMACSF, 72 h	0.957 ± 0.018	0.941 ± 0.04	0.939 ± 0.018	0.697 ± 0.026	0.56 ± 0.03	0.29 ± 0.022	0.0882 ± 0.021
MZ7MEL, 24 h	0.982 ± 0.1	1.11 ± 0.24	1.08 ± 0.14	1.08 ± 0.08	1.15 ± 0.19	1.1 ± 0.19	0.938 ± 0.065
MZ7MEL, 48 h	1.04 ± 0.094	1.09 ± 0.082	1.07 ± 0.065	1.07 ± 0.075	0.955 ± 0.08	0.667 ± 0.026	0.54 ± 0.059
MZ7MEL, 72 h	1.29 ± 0.18	1.39 ± 0.1	1.19 ± 0.3	0.871 ± 0.2	0.587 ± 0.052	0.367 ± 0.054	0.349 ± 0.066
RVH421, 24 h	0.8497 ± 0.0046	0.936 ± 0.064	0.993 ± 0.11	1 ± 0.063	1.07 ± 0.075	1.04 ± 0.043	0.823 ± 0.03
RVH421, 48 h	1.02 ± 0.13	0.907 ± 0.079	0.932 ± 0.081	0.887 ± 0.023	0.778 ± 0.045	0.684 ± 0.022	0.503 ± 0.045
RVH421, 72 h	0.957 ± 0.018	1.02 ± 0.036	0.959 ± 0.093	0.909 ± 0.07	0.674 ± 0.043	0.539 ± 0.044	0.452 ± 0.015
WM1552C, 24 h	0.92 ± 0.085	0.969 ± 0.039	0.912 ± 0.045	1.06 ± 0.068	1.03 ± 0.026	0.987 ± 0.024	0.875 ± 0.053
WM1552C, 48 h	0.9247 ± 0.008	1 ± 0.044	1.01 ± 0.061	1 ± 0.044	1.06 ± 0.075	0.886 ± 0.012	0.719 ± 0.041
WM1552C, 72 h	1.06 ± 0.1	1.14 ± 0.079	1.17 ± 0.12	1.2 ± 0.13	1.06 ± 0.1	0.671 ± 0.058	0.42 ± 0.039

LOXIMVI
Conditions	relative viability
0.00316 µM	0.969 ± 0.058
0.01 µM	0.94 ± 0.22
0.0316 µM	0.959 ± 0.17
0.1 µM	0.96 ± 0.13
0.316 µM	0.953 ± 0.11
1 µM	0.95 ± 0.11
3.16 µM	0.805 ± 0.1
